The nature of data set [1]: Thermodynamic (aqueous) solubility, 24 hours at 25° C., HPLC quantitation. Format: physicochemical. As to conditions: for solubility thermodynamic at 24 h: thermodynamic from solid. As to the method: The suspension was equilibrated at 25° C., on a Heidolph plate shaker set to 750 rpm for 24 hours. The pH of the sample solutions was periodically checked and, if required, adjusted with 0.2M NaOH to ensure that the desired pH was maintained (±0.05) throughout. The pH of the saturated solution after this time was measured and the suspension filtered through a glass fibre C filter (particle retention 1.2 μm) and diluted appropriately.
Quantitation was by HPLC with reference to a standard solution of approximately 0.15 mg/ml in 1:1 MeCN/H2O. Different volumes of the standard, diluted and undiluted sample solutions were injected.
Different volumes of the standard, diluted and undiluted sample solutions were injected. The solubility was calculated using the peak areas determined by integration of the peak found at the same retention time as the principal peak in the standard injection.
Analysis was performed on an Agilent HP1100 series system equipped with a diode array detector and using ChemStation software.

Data set [2] can be described thus: Intrinsic dissolution rate (IDR), Sirius inForm, compressed discs. The format is physicochemical. As to conditions: 37° C., pH 5.0 media, 1 hour, 6 mm disc. As for the experimental part:
IDR Method Ca. 40 mg material was compressed under 100 kg for 2 minutes to form non-disintegrating discs. The discs were then plugged with a bung so that only one surface was exposed to the media during analysis, and transferred to the dissolution apparatus (Sirius inForm). The volume of the assay was 40 ml and a stir speed of 225 rpm was used. Analysis was performed at 37° C. in pH 5.0 media for 1 hour with UV spectra collected every 30 seconds, using a 20 mm path length probe.

[3] abbreviates: Media DI Water, pH 7.8, 25° C., 24 hours, final pH 5.24-5.42.

Values after ≈ are worked out from the molar mass of the structure shown. Bounds are passed on as bounds.

As for `COc1c(Cl)ccc(Cl)c1C(=O)O` [Dicamba freeform, 3,6-Dichloro-2-methoxybenzoic acid], the solubility (thermodynamic) at 24 h in data set [1] (pH 4.0 acetic acid/sodium acetate media, aqueous buffer, pH 4.0 media (42.4 ml 0.1 M acetic acid mixed with 7.6 ml 0.1 M sodium acetate), 25° C., 24 hours, read-out: Thermodynamic solubility of second component) was above 13800 µg/mL.

On to `Nc1c(Cl)c(F)nc(OCC(=O)O)c1Cl` [Fluroxypyr freeform, Fluroxypyr], for which, in data set [2], the “IDR of second component” value is reported as 956.9 μg/min/cm^2. The solubility (thermodynamic) at 24 h in data set [1] (25 °C, pH 4.04, water) came out at 290 µg/mL (≈ 1140 µM).

For `CCc1cc(C)cc(CC)c1-c1c(OC(=O)C(C)(C)C)n2n(c1=O)CCOCC2` [Pinoxaden freeform, [8-(2,6-diethyl-4-methylphenyl)-7-oxo-1,2,4,5-tetrahydropyrazolo[1,2-d][1,4,5]oxadiazepin-9-yl] 2,2-dimethylpropanoate], the “IDR of pinoxaden component” value in data set [2] amounted to 69.4 μg/min/cm^2. Further, the solubility (thermodynamic) at 24 h in data set [1] (aqueous buffer, pH 4.0 media (42.4 ml 0.1 M acetic acid mixed with 7.6 ml 0.1 M sodium acetate), 25° C., 24 hours, read-out: Thermodynamic solubility of pinoxaden component) was 280 µg/mL (≈ 699 µM); in data set [1] (Media DI Water, 25° C., 24 hours, final pH 3.97-4.10, read-out: Thermodynamic solubility of pinoxaden component), around 230 µg/mL (≈ 574 µM).

Consider “Pinoxaden:2,4-D (1:1) Molecular Complex [Example 3]”, for which, in data set [1] (setting [3]), the “Thermodynamic solubility of pinoxaden component” value turned out to be 200 µg/mL and the “Thermodynamic solubility of second component” value came to 120 µg/mL.

(Values after US20220369641A1, “MOLECULAR COMPLEXES” (priority 2019, published 2022).)
